Values of other authors in patent US20050129764A1, “Osmotic device containing licofelone” (priority 2003, published 2005).

Assays:
[1] = test system: osteoarthritis of the knee; conditions: phase III
[2] = single dose (800-3,200) mg, volunteers
[3] = 200 mg dose administered twice daily

elimination half-life (T1/2β) [3]: 8.7 to 11.1 h
peak plasma licofelone concentrations [3]: 1650 to 1750 ng/mL
time post-dose at which peak plasma concentrations were reached [3]: 0.74 to 4 h
Structure (SMILES): CC1(C)Cc2c(-c3ccccc3)c(-c3ccc(Cl)cc3)c(CC(=O)O)n2C1 [licofelone]
improvement in efficacy parameters ([1]; licofelone 400 mg/day bid): greatest improvement in efficacy parameters
efficacy in long-term treatment of osteoarthritis of the knee vs naproxen ([1]; n=704, licofelone 200 and 400 mg/day bid, naproxen 1000 mg/day bid): at least as effective as naproxen
tolerability [2]: generally well tolerated
activity in animal experiments: antiphlogistic, analgesic, antipyretic, antiasthmatic and antiaggregative activity
gastrointestinal damage at active dosage (animal experiments): no gastrointestinal damage
